Where two headings read alike, the source gives them in different places.
Key:
[1] = system: MDSCs; experiment: ATRA in patients with metastatic renal cell carcinoma: MDSC and DC; format: in vivo, human
[2] = system: Retinoid Acid Receptor (RAR) and Retinoid X Receptor (RXR); details: cited from earlier work
[3] = system: MDSC; experiment: Randomized phase II study: proportion of MDSC before and after immunization; format: in vivo, human
Procedure: To assess immune response, PBMCs were collected from patients at different time points during the treatment (FIG. 4) and kept frozen in liquid nitrogen. All samples from one patient were analyzed simultaneously to reduce inter-experimental variability. PBMCs were thawed, incubated overnight in complete medium (RPMI-1640 supplemented with antibiotics and 10% FBS) and then used in experiments. Cell viability was greater than 80%.

[4] = system: human MDSCs; details: in vitro; cited from earlier work
[5] = system: Gr-1+ cells; details: tumor-bearing mice, cited from earlier work
[6] = system: Gr-1+ cells; details: in vitro; cited from earlier work
[7] = system: PD-L1 expressing or negative tumors; details: cited from earlier work; for overall response rate (ORR): all patients
[8] = cited from earlier work
[9] = system: advanced stage NSCLC; details: cited from earlier work
[10] = 38 patients; cited from earlier work
[11] = system: ES-SCLC; experiment: Randomized phase II study in ES-SCLC (NCT00617409): objective response and survival; format: in vivo, human; details: arm A (observation, no vaccine)
Source text: Patients with ES-SCLC were enrolled to this randomized phase II study. […] After receiving initial chemotherapy, (4-6 cycles of a standard platinum/etoposide regimen as first-line chemotherapy), patients were enrolled and randomized. Additional eligibility included; stable disease (SD) or better with Eastern Cooperative Oncology Group (ECOG) performance status of 0 to 1, and adequate organ function were screened for initial registration approximately 4-6 weeks after the completion of first-line chemotherapy. Prophylactic cranial irradiation (PCI) was permitted.
Each vaccine consisted of 2-5×10^6 Ad-p53 DCs. Cells were injected intradermally, at two-week intervals for three times (three vaccine doses). Patients were restaged approximately 2 weeks after the 3rd vaccine dose. Patients without signs of disease progression (PD) underwent a second leukapheresis and then vaccinated 3 more times at 4-week intervals. Patients on Arm C also received 150 mg/m^2 ATRA for 3 days prior to each vaccine administration (followed by vaccine administration on the next day).
All patients were followed until evidence of PD at which time they received salvage or second line chemotherapy with single agent paclitaxel (200 mg/m2 IV every 3 weeks, 4-6 cycles).
The primary objective was to evaluate the efficacy of second line paclitaxel in the two experimental regimens (Arms B and C). […]

CC1=C(/C=C/C(C)=C/C=C/C(C)=C/C(=O)O)C(C)(C)CCC1 [ATRA, all-trans-retinoic acid]
MDSC/DC ratio [1]: improved MDSC/DC ratio to control levels | presence of MDSC [1]: significantly decreased the presence of MDSC | relative affinity for RAR and RXR [2]: higher affinity to RAR | proportion of CD11b+CD14−CD33+ MDSC ([3]; patients treated with ATRA (arm C), p=0.03): decreased less dramatically but also significantly | presence of Lin−HLA-DR−CD33+ MDSC ([3]; patients treated with ATRA (arm C: vaccine plus 150 mg/m2 ATRA), p=0.02): decreased more than two-fold | fraction of MDSCs becoming DC-like [4]: ⅔ | fraction of MDSCs becoming myeloid [4]: ⅓ | presence of Gr-1+ cells ([5]; in vivo administration): dramatically reduces the presence of Gr-1^+ cells | effect of tumor vaccines [5]: improves the effect of tumor vaccines | differentiation and immunosuppressive effect of Gr-1+ cells [6]: differentiates these cells in vitro and removes their immunosuppressive effect

MK-3475: humanized monoclonal antibody of the IgG4/kappa isotype blocking the interaction between PD-1 and its ligands
ORR ([7]; PD-L1 expressing tumors, RECIST, (16-30%)): 23% | ORR ([7]; PD-L1 expressing tumors, irRC, 95% CI 14-26%): 19% | ORR ([7]; PD-L1 negative tumors, RECIST, (2-23%)): 9% | ORR ([7]; PD-L1 negative tumors, irRC, 95% CI 4-27%): 13% | overall response rate (ORR) ([7]; RECIST v1.1, 95% CI 15-26%): 20% | overall response rate (ORR) ([7]; irRC, 10 mg/kg Q2W or Q3W, 95% CI 13-24%): 18% | patients who developed grade 3/4 pneumonitis ([8]; 2 patients in each schedule): Four | drug-related adverse event: arthralgia ([8]; 217 patients): 6.1% | drug-related adverse event: pruritis ([8]; 217 patients): 5.4% | drug-related adverse event: pyrexia ([8]; 217 patients): 3.6% | patients with grade 3/4 drug-related adverse events ([8]; 217 patients): Six | patients responding to therapy ([9]; PD-L1 high tumors, Six of 9, 95% CI 30-93%): 67% | patients responding to therapy ([9]; PD-L1 low tumors, 0/22, 95% CI 0-15%): 0% | overall objective response rate ([9]; investigator-assessed irRC, 38 patients): 24% | drug-related deaths [10]: no drug-related deaths | grade 3/4 event (grade 3 pulmonary edema) [10]: one

CC(=O)O[C@H]1C(=O)[C@@]2(C)[C@H]([C@H](OC(=O)c3ccccc3)[C@]3(O)C[C@H](OC(=O)[C@H](O)[C@@H](NC(=O)c4ccccc4)c4ccccc4)C(C)=C1C3(C)C)[C@]1(OC(C)=O)CO[C@@H]1C[C@@H]2O [paclitaxel]
OR to paclitaxel (or other second line treatment) [11]: 1/11

Reference: patent publication US11071775B2, “Combination immunotherapy for treating cancer” (H. Lee Moffitt Cancer Center and Research Institute, Inc., priority 2015, dated 2021)
